Data: US20120059037A1, “SUBSTITUTED PYRIDINE DERIVATIVES AND THEIR MEDICAL USE” (NEUROSEARCH A/S, priority 2009, published 2012)

Target: T1, human Kv7.2+3 (Homo sapiens, UniProt O43525+O43526)
T1 construct: expressed in transfected cells; host or cells: HEK293
Assay: FLIPR-based characterization of Kv7.2+3 modulators (thallium influx)
Format: cell-based
Conditions: HEK293 cells over-expressing human Kv7.2+3; for EC50: Tl+ influx, BTC-AM, FLIPR, relative to retigabine control responses; for Efficacy: maximal response relative to the reference (retigabine) response
Method: This experiment determines the ability of a test compound to modulate the activity of Kv7.2+3 channels heterologously expressed in human HEK293 cells. The ability is determined relative to retigabine. The activity is determined using a standard thallium (I) sensitive assay, e.g. using a fluorometric method in a Fluorescent Image Plate Reader (FLIPR) as described below in more detail.
Full concentration/response curves are generated and EC50 values are calculated based on max values. EC50 values (Effective Concentration) represent the concentration of the test substance, at which 50% of the channel activity is obtained when compared to retigabine control responses. Maximal response determined relative to the reference (retigabine) response is calculated.
Human HEK293 cells over-expressing human Kv7.2+3 are grown in culture medium (DMEM supplemented with 10% foetal bovine serum), in polystyrene culture flasks ([…]) in a humidified atmosphere of 5% CO2 in air, at 37° C. Cell confluence should be 80-90% on day of plating. Cells are rinsed with 4 ml of PBS (phosphate buffered saline) and incubated 2 min with 1 ml of Trypsin-EDTA. After addition of 25 ml of culture medium cells are re-suspended by trituration with a 25 ml pipette.
The cells are seeded at a density of ˜3×10^6 cells/ml (25 μl/well) in black-walled, clear bottom, 384-well plates pre-treated with 0.01 g/l poly-D-lysin (20 μl/well for ≧30 min). Plated cells were allowed to proliferate for 24 h before loading with dye.
BTC-AM (50 mg, Invitrogen) is added 25.5 μl DMSO. The BTC-AM stock solution (2 mM) is diluted to a final concentration of 2 μM in Cl^− free assay buffer (in mM: 140 Na^+-gluconate, 2.5 K^+-gluconate, 6 Ca2^+-gluconate, 1 Mg^2+ gluconate, 5 glucose, 10 HEPES, pH 7.3) containing 2 μM ouabain, 2 mM amaranth and 1 mM tartrazine.
The culture medium is aspirated from the wells, the cells are washed thrice in Cl^− free assay buffer, and 25 μl of the BTC-AM loading solution is added to each well. The cells are incubated at 37° C. for 60 min.
After the loading period, the Tl^+-sensitive BTC fluorescence signal is measured over time using a FLIPR.
• Temperature: Room temp. • First addition: 12 μl test or control compound after 15 sec at a rate of 30 μl/sec and starting height of 20 μl • Second addition: 12 μl stimulus buffer (Cl^− free assay buffer supplemented with 1 mM Tl2SO4, 5 mM K2SO4 as well as the quenchers amaranth (2 mM) and tartrazine (1 mM)) is added after an additional 3 minutes at a rate of 30 μl/sec and starting height of 30 μl • Reading intervals: First sequence—3 sec×5, 2 sec×24 and 5 sec×25 • Second sequence—1 sec×5, 2 sec×24 and 5 sec×36 Addition plates (compound plate and stimulus plate) are placed in positions 2 and 3, respectively. Cell plates are placed in position 1 and run using the “KCNQ (two additions)” program. FLIPR will then take the appropriate measurements in accordance with the interval settings above. Fluorescence obtained after stimulation is corrected for the mean basal fluorescence (in Cl^− free assay buffer).
Full concentration/response curves are generated and EC50 values (“Effective Concentration”; the concentration at which 50% of the channel activity is obtained when compared to retigabine control responses) are calculated based on peak values. Maximal response determined relative to the reference (retigabine) response is calculated.

Row | Compound | EC50 [nM] | Efficacy [%]
1 | O=C(Cc1cc(F)cc(F)c1)Nc1ccc(NCc2ccc(Cl)nc2)nc1N1CCCC1 [Compound 1.1, N-{6-[(6-Chloro-pyridin-3-ylmethyl)-amino]-2-pyrrolidin-1-yl-pyridin-3-yl}-2-(3,5-difluoro-phenyl)-acetamide] | 66 | 100
2 | O=C(Cc1cc(F)cc(F)c1)Nc1ccc(NCc2cccnc2)nc1N1CCCC1 [Compound 1.2, 2-(3,5-Difluoro-phenyl)-N-{6-[(pyridin-3-ylmethyl)-amino]-2-pyrrolidin-1-yl-pyridin-3-yl}-acetamide] | 20 | 108
3 | CC(C)(C)CC(=O)Nc1ccc(NCc2ccc(Cl)nc2)nc1N1CCCC1 [Compound 1.3, N-{6-[(6-Chloro-pyridin-3-ylmethyl)-amino]-2-pyrrolidin-1-yl-pyridin-3-yl}-3,3-dimethyl-butyramide] | 66 | 100
